Results: US6518301B1, “Estrogen receptor-β ligands” (AstraZeneca AB, priority 1999, dated 2003)
pKd, pKi: −log10 of the molar value.

The compounds below were run against T1, ER-α (Gen Bank Accession #M12674) (Homo sapiens, UniProt P03372) (assay: Estrogen receptor binding, competition with [125I]-estradiol, ER-α). Conditions: not given.
T1 construct: made in house; host or cells: in vitro transcription/translation, TNT T7 Quick-Coupled reticulocyte lysate (Promega Cat.#L1170)
T1 sequence (P03372 1-595): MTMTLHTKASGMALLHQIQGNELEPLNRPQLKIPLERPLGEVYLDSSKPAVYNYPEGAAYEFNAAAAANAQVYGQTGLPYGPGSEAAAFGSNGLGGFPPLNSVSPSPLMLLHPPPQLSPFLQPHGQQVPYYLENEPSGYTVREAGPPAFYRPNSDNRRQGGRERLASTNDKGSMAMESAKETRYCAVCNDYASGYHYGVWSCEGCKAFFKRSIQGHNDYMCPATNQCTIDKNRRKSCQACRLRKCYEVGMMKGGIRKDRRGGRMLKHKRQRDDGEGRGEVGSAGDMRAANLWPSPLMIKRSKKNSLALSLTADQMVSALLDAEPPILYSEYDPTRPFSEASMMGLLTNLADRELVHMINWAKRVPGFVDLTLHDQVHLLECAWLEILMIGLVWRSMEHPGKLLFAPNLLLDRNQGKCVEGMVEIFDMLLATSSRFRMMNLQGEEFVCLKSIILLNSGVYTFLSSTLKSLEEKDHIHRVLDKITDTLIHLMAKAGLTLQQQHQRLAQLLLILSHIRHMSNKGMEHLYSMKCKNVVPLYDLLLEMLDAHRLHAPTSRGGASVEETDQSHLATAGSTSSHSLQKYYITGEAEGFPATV
Method: (§1) The ability of a compound to bind to ER was measured by its ability to compete for binding with the radio-labeled estrogen.
(§2) Receptor protein was prepared by in vitro transcription and translation of these plasmids using the TNT T7 Quick-Coupled reticulocyte lysate system (Promega Cat.#L1170). […] Programmed lysate was then aliquotted and stored frozen at −80° C.
(§3) Compounds were prepared as 1 mM stocks in DMSO, then diluted in the binding-assay buffer (in mM: 20 HEPES, 150 NaCl, 1 EDTA, 6 monothioglycerol and 10 Na2MoO4; 10% wt/vol glycerol, and pH =7.9) to a series of three-fold concentrated, 20 μL aliquots in a 96-well plate. Receptor aliquots were thawed on ice, and appropriately diluted (see below) in binding assay buffer. Diluted receptor (30 μL/each) was added to each well. […] Plates containing the final assay mixture were mixed on a shaker for 2 min and incubated overnight (˜16 h) at 4° C.
(§4) Receptor-bound and unbound radioligand was separated by filtration over sephadex columns. Columns (45 μL bed volume) were prepared by adding dry column media (Pharmacia Cat#G-25) to 96-well column templates (Millipore MultiScreen Plates Cat#MAHVN4510). Columns were then saturated with 300 μL of binding-assay buffer and stored at 4° C. Prior to use, stored columns were spun for 10 minutes at 2000 RPM, then washed twice with 200 μL of fresh binding buffer. The binding-assay mixtures (50 μL/each) were then applied to the columns, and an additional elution volume of 35 μL was immediately applied to the column. Receptor-bound radioligand was then cluted from the column by centrifugation for 10 minutes at 2000 RPM. A scintillation cocktail (145 μL) was added to the eluted radioligand/receptor complex, and radio-label was measured by liquid scintillation counting.
In the case of `COc1cc(O)c2c(=O)c(-c3ccc(O)cc3)coc2c1` [compound 22], the pKi was < 5.52.

Same assay, conditions: competition with 150 pM [125I]-estradiol; receptor-programmed reticulocyte lysate; overnight at 4° C.; Cheng-Prushoff from IC50; read-out: ER-α Ki
In the case of `O=c1c(-c2ccc3ccccc3n2)coc2cc(O)cc(O)c12` [compound 19], the pKi was < 5.52. With `COc1c(O)cc(O)c2c(=O)c(-c3ccc(O)cc3)coc12` [compound 32] the pKi was < 5.52. With `O=c1c(-c2ccccc2)c(-c2ccccc2)oc2cc(O)ccc12` [compound 35] the pKi was 7.30. For `O=c1oc2cc(O)cc(O)c2cc1-c1ccc(O)cc1` [compound 39], the pKi was < 5.52. In the case of `COc1cc(-c2coc3cc(O)cc(O)c3c2=O)ccc1O` [compound 9], the pKi was < 5.52. Work on `O=C1c2c(O)cc(O)cc2OCC1c1ccc(O)cc1` (stereo not drawn) [compound 26] yielded a pKi of 6.00. In the case of `O=c1c(-c2ccc(Br)cc2)coc2cc(O)cc(O)c12` [compound 20], the pKi was < 5.52. `O=c1c(-c2ccc(O)c(O)c2)coc2cc(O)cc(O)c12` [compound 1] gave a pKi of 6.22. `Nc1ccc(-c2coc3cc(O)cc(O)c3c2=O)cc1` [compound 13] was tested, and the pKi was < 5.52. With `O=c1c(-c2cccc(O)c2)coc2cc(O)cc(O)c12` [compound 15] the pKi was 6.05. `O=c1c(-c2ccccc2)c(-c2ccccc2)oc2cc(O)cc(O)c12` [compound 34] showed a pKi of 7.02. For `Cc1c(-c2ccc(Cl)cc2)c(=O)oc2cc(O)ccc12` [compound 42], the pKi was < 5.52. Work on `Cc1cc(O)cc2occ(-c3ccc(O)cc3)c(=O)c12` [compound 23] yielded a pKi of 6.70. `O=c1c(-c2ccccc2F)coc2cc(O)cc(O)c12` [compound 33] was tested, and the pKi was < 5.52. `O=c1c(-c2ccc(O)c(Cl)c2)coc2cc(O)cc(O)c12` [compound 5] showed a pKi of 5.96. For `Cc1cc(-c2coc3cc(O)cc(O)c3c2=O)cc(C)c1O` [compound 10], the pKi was < 5.52. With `O=c1c(-c2cccs2)coc2cc(O)cc(O)c12` [compound 17] the pKi was < 5.52. In the case of `O=c1c(-c2ccccc2O)coc2cc(O)cc(O)c12` [compound 16], the pKi was < 5.52. For `Cc1cc(O)ccc1-c1coc2cc(O)cc(O)c2c1=O` [compound 3], the pKi was 7.21. With `O=c1cc(-c2ccc(O)cc2)oc2ccc(O)cc12` [compound 36] the pKi was 7.06. In the case of `O=c1c(-c2ccc3ccccc3c2)coc2cc(O)cc(O)c12` [compound 14], the pKi was < 5.52. `O=c1c(-c2ccc(Cl)cc2)coc2cc(O)cc(O)c12` [compound 21] was tested, and the pKi was < 5.52. `O=c1c(-c2ccsc2)coc2cc(O)cc(O)c12` [compound 18] was tested, and the pKi was < 5.52. In the case of `Cc1c(-c2ccc(O)cc2)c(=O)oc2cc(O)ccc12` [Compound No. 28, 3-(4-hydroxyphenyl)-7-hydroxy-4-methylcoumarin], the pKi was 6.49. Compound `O=c1c(-c2ccc(O)cc2)c(C(F)(F)F)oc2cc(O)ccc12` [compound 25] has a pKi of 6.49. For `O=C1CC(c2ccc(O)cc2)Cc2ccc(O)cc21` (stereo not drawn) [compound 37], the pKi was 7.12. For `Cc1c(-c2ccc(O)cc2)c(=O)oc2c(C)c(O)ccc12` [compound 43], the pKi was 6.30. `CCCc1cc(-c2coc3cc(O)cc(O)c3c2=O)ccc1O` [compound 8] was tested, and the pKi was < 5.52. With `O=c1c(-c2ccc(O)c(F)c2)coc2cc(O)ccc12` [compound 24] the pKi was < 5.52. In the case of `O=c1c(-c2ccc(O)c(F)c2)coc2cc(O)cc(O)c12` [compound 4], the pKi was 7.13. For `C=CCc1cc(-c2coc3cc(O)cc(O)c3c2=O)ccc1O` [compound 7], the pKi was < 5.52. Work on `Oc1ccc(C2COc3cc(O)ccc3C2)cc1` (stereo not drawn) [compound 46] yielded a pKi of 6.81. In the case of `O=c1c(-c2ccc3c(c2)OCO3)coc2cc(O)cc(O)c12` [compound 12], the pKi was < 5.52. `O=c1oc2cc(O)ccc2cc1-c1ccc(O)cc1` [compound 38] showed a pKi of 6.66. Compound `O=c1c(-c2ccc(O)cc2Cl)coc2cc(O)cc(O)c12` [Compound No. 2] has a pKi of 7.25. For `O=c1c(-c2ccc(F)cc2)coc2cc(O)cc(O)c12` [compound 11], the pKi was < 5.52. Compound `O=c1c(-c2ccc(O)c(Br)c2)coc2cc(O)cc(O)c12` [compound 6, (3-Bromo-4-hydroxyphenyl)-5,7-dihydroxy-4H-1-benzopyran-4-one] has a pKi of 6.36. Work on `CCc1c(-c2ccc(O)cc2)c(=O)oc2cc(O)ccc12` [compound 29] yielded a pKi of 7.10.

Each compound was assayed against T2, ER-β (Gen Bank Accession #X99101) (Homo sapiens, UniProt Q92731) (assay: Estrogen receptor binding, competition with [125I]-estradiol, ER-β). Conditions: not given.
T2 construct: made in house; host or cells: in vitro transcription/translation, TNT T7 Quick-Coupled reticulocyte lysate (Promega Cat.#L1170)
T2 sequence (Q92731 54-530 limits assumed): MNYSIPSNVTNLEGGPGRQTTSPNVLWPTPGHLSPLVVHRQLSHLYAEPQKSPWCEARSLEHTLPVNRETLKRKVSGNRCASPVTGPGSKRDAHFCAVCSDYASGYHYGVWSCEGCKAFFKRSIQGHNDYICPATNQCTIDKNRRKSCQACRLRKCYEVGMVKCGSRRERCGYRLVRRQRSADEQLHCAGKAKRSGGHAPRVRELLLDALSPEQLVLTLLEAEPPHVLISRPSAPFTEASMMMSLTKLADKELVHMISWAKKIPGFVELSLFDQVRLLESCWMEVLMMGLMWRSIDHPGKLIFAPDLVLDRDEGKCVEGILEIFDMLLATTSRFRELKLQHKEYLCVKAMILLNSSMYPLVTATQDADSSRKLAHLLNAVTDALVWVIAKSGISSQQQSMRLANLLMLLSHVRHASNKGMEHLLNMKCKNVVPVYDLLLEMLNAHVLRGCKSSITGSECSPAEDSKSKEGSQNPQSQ
Method: as §1, §2, §3, §4
`COc1cc(O)c2c(=O)c(-c3ccc(O)cc3)coc2c1` [compound 22] showed a pKi of 7.30.

Same assay, conditions: competition with 150 pM [125I]-estradiol; receptor-programmed reticulocyte lysate; overnight at 4° C.; Cheng-Prushoff from IC50; read-out: ER-β Ki
`O=c1c(-c2ccc3ccccc3n2)coc2cc(O)cc(O)c12` [compound 19] was tested, and the pKi was 6.91. In the case of `COc1c(O)cc(O)c2c(=O)c(-c3ccc(O)cc3)coc12` [compound 32], the pKi was 7.48. `O=c1c(-c2ccccc2)c(-c2ccccc2)oc2cc(O)ccc12` [compound 35] showed a pKi of 7.72. Compound `O=c1oc2cc(O)cc(O)c2cc1-c1ccc(O)cc1` [compound 39] has a pKi of 7.10. With `COc1cc(-c2coc3cc(O)cc(O)c3c2=O)ccc1O` [compound 9] the pKi was 6.84. Compound `O=C1c2c(O)cc(O)cc2OCC1c1ccc(O)cc1` (stereo not drawn) [compound 26] has a pKi of 8.43. In the case of `O=c1c(-c2ccc(Br)cc2)coc2cc(O)cc(O)c12` [compound 20], the pKi was 7.60. `O=c1c(-c2ccc(O)c(O)c2)coc2cc(O)cc(O)c12` [compound 1] showed a pKi of 8.67. Work on `Nc1ccc(-c2coc3cc(O)cc(O)c3c2=O)cc1` [compound 13] yielded a pKi of 8.22. Compound `O=c1c(-c2cccc(O)c2)coc2cc(O)cc(O)c12` [compound 15] has a pKi of 7.82. `O=c1c(-c2ccccc2)c(-c2ccccc2)oc2cc(O)cc(O)c12` [compound 34] gave a pKi of 8.02. `Cc1c(-c2ccc(Cl)cc2)c(=O)oc2cc(O)ccc12` [compound 42] was tested, and the pKi was 7.29. In the case of `Cc1cc(O)cc2occ(-c3ccc(O)cc3)c(=O)c12` [compound 23], the pKi was 9.30. `O=c1c(-c2ccccc2F)coc2cc(O)cc(O)c12` [compound 33] showed a pKi of 7.30. In the case of `O=c1c(-c2ccc(O)c(Cl)c2)coc2cc(O)cc(O)c12` [compound 5], the pKi was 8.92. For `Cc1cc(-c2coc3cc(O)cc(O)c3c2=O)cc(C)c1O` [compound 10], the pKi was 7.60. `O=c1c(-c2cccs2)coc2cc(O)cc(O)c12` [compound 17] showed a pKi of 8.48. For `O=c1c(-c2ccccc2O)coc2cc(O)cc(O)c12` [compound 16], the pKi was 6.96. With `O=c1oc2ccc(O)cc2cc1-c1ccc(O)cc1` [compound 41] the pKi was 8.34. Work on `Cc1cc(O)ccc1-c1coc2cc(O)cc(O)c2c1=O` [compound 3] yielded a pKi of 8.92. With `O=c1cc(-c2ccc(O)cc2)oc2ccc(O)cc12` [compound 36] the pKi was 9.48. `O=c1c(-c2ccc3ccccc3c2)coc2cc(O)cc(O)c12` [compound 14] was tested, and the pKi was 6.82. For `O=c1c(-c2ccc(Cl)cc2)coc2cc(O)cc(O)c12` [compound 21], the pKi was 7.38. In the case of `O=c1c(-c2ccsc2)coc2cc(O)cc(O)c12` [compound 18], the pKi was 7.77. Work on `Cc1c(-c2ccc(O)cc2)c(=O)oc2cc(O)ccc12` [Compound No. 28, 3-(4-hydroxyphenyl)-7-hydroxy-4-methylcoumarin] yielded a pKi of 7.92. For `O=c1c(-c2ccc(O)cc2)c(C(F)(F)F)oc2cc(O)ccc12` [compound 25], the pKi was 8.00. With `O=C1CC(c2ccc(O)cc2)Cc2ccc(O)cc21` (stereo not drawn) [compound 37] the pKi was 9.14. In the case of `Cc1c(-c2ccc(O)cc2)c(=O)oc2c(C)c(O)ccc12` [compound 43], the pKi was 7.62. Compound `CCCc1cc(-c2coc3cc(O)cc(O)c3c2=O)ccc1O` [compound 8] has a pKi of 9.12. `O=C1c2c(O)cc(O)cc2CCC1c1ccc(O)cc1` (stereo not drawn) [compound 27] was tested, and the pKi was 8.24. In the case of `O=c1c(-c2ccc(O)c(F)c2)coc2cc(O)ccc12` [compound 24], the pKi was 8.48. With `O=c1c(-c2ccc(O)c(F)c2)coc2cc(O)cc(O)c12` [compound 4] the pKi was 9.30. Work on `C=CCc1cc(-c2coc3cc(O)cc(O)c3c2=O)ccc1O` [compound 7] yielded a pKi of 8.49. `Oc1ccc(C2COc3cc(O)ccc3C2)cc1` (stereo not drawn) [compound 46] showed a pKi of 8.70. Work on `O=c1c(-c2ccc3c(c2)OCO3)coc2cc(O)cc(O)c12` [compound 12] yielded a pKi of 7.66. Work on `O=c1oc2cc(O)ccc2cc1-c1ccc(O)cc1` [compound 38] yielded a pKi of 8.31. For `O=c1c(-c2ccc(O)cc2Cl)coc2cc(O)cc(O)c12` [Compound No. 2], the pKi was 9.26. `O=c1c(-c2ccc(F)cc2)coc2cc(O)cc(O)c12` [compound 11] showed a pKi of 7.00. Compound `O=c1c(-c2ccc(O)c(Br)c2)coc2cc(O)cc(O)c12` [compound 6, (3-Bromo-4-hydroxyphenyl)-5,7-dihydroxy-4H-1-benzopyran-4-one] has a pKi of 8.90. With `CCc1c(-c2ccc(O)cc2)c(=O)oc2cc(O)ccc12` [compound 29] the pKi was 8.40.

Each compound was assayed against ER (assay: Scatchard analysis of ligand binding affinity on receptor preparation). Conditions: Scatchard analysis at receptor dilutions giving reported Kis and signal:noise ~10; subtype not specified; read-out: KD for [125I]-estradiol.
Method: The volume of receptor-programmed reticulocyte lysate to be added to the binding assay was determined independently from two measurements made on each batch of receptor prepared. First, Kis were determined for standard compounds using a series of dilutions of the receptor preparation. Scatchard analysis of ligand binding affinity was performed at the receptor dilutions that produced reported Kis for these compounds and an acceptable signal:noise ratio (˜10).
`CC12CCC3c4ccc(O)cc4CCC3C1CC([125I])C2O` (stereo not drawn) [[^125I]-estradiol, [^125I]-16α-iodo-3,17β-estradiol] showed a pKd of 9.00 to 10.00.
